How the values were obtained:
Assay in all cases: In vitro antifungal activity, microbroth dilution MIC
Type in all cases: cell-based
[1] = system: Candida tropicalis A. 13803; details: 4 to 48 hours; for Minimal inhibitory concentration(MIC), C. tropicalis A. 13803: RPMI-1640, 35° C., no growth observed
Procedure, shortened: (§1)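 Broth microdilution adapted from NCCLS M27, in RPMI-1640 with 0.165 M MOPS, pH 7.0. Yeast or mould inoculum at 2×10^3 CFU/ml was mixed 1:1 with DMSO-derived compound solutions (200 to 0.10 μg/ml before mixing) and incubated at 35 °C for 4 to 48 h. MIC was the concentration showing no growth.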

[2] = system: Aspergillus niger A. 16404; details: for Minimal inhibitory concentration(MIC), A. niger A. 16404: RPMI-1640, 35° C., no growth observed
Procedure, shortened: as §1

[3] = system: Trichophyton mentagrophytes A. 9129; details: for Minimal inhibitory concentration(MIC), T. mentagrophytes A. 9129: RPMI-1640, 35° C., no growth observed
Procedure, shortened: as §1

[4] = system: Aspergillus furnigatus B. 19119; details: for Minimal inhibitory concentration(MIC), A furnigatus B. 19119: RPMI-1640, 35° C., no growth observed
Procedure, shortened: as §1

[5] = system: Candida parapsitosis A. 7330; details: 4 to 48 hours; for Minimal inhibitory concentration(MIC), C. parapsitosis A. 7330: RPMI-1640, 35° C., no growth observed
Procedure, shortened: as §1

Candida krusei K. 11655 = details: 4 to 48 hours; for Minimal inhibitory concentration(MIC), C. krusei K. 11655: RPMI-1640, 35° C., no growth observed
Procedure, shortened: as §1

[6] = system: Cryptococcus neoformans IFM. 40092; details: for Minimal inhibitory concentration(MIC), Cry. neoformans IFM. 40092: RPMI-1640, 35° C., no growth observed
Procedure, shortened: as §1

[7] = system: Cryptococcus neoformans B. 42419; details: 4 to 48 hours; for Minimal inhibitory concentration(MIC), Cry. neoformans B. 42419: RPMI-1640, 35° C., no growth observed
Procedure, shortened: as §1

[8] = system: Torulopsis glabrata B. 16205; details: 4 to 48 hours; for Minimal inhibitory concentration(MIC), T. glabrata B. 16205: RPMI-1640, 35° C., no growth observed
Procedure, shortened: as §1

[9] = system: Candida pseudotropicalis K. 11658; details: 4 to 48 hours; for Minimal inhibitory concentration(MIC), C. pseudotropicalis K. 11658: RPMI-1640, 35° C., no growth observed
Procedure, shortened: as §1

[10] = system: Cryptococcus neoformans A. 34144; details: for Minimal inhibitory concentration(MIC), Cry. neoformans A. 34144: RPMI-1640, 35° C., no growth observed
Procedure, shortened: as §1

[11] = system: Candida albicans IFO. 1385; details: 4 to 48 hours; for Minimal inhibitory concentration(MIC), C. albicans IFO. 1385: RPMI-1640, 35° C., no growth observed
Procedure, shortened: as §1

[12] = system: Candida albicans A. 10231; details: 4 to 48 hours; for Minimal inhibitory concentration (MIC): C. albicans A. 10231, RPMI-1640, 35° C.; for Minimal inhibitory concentration(MIC), C. albicans A. 10231: RPMI-1640, 35° C., no growth observed
Procedure, shortened: as §1

[13] = system: Trichophyton mentagrophytes B. 32663; details: for Minimal inhibitory concentration(MIC), T. mentagrophytes B. 32663: RPMI-1640, 35° C., no growth observed
Procedure, shortened: as §1

Candida albicans C1-2 = details: 4 to 48 hours; for Minimal inhibitory concentration (MIC): C. albicans C1-2, RPMI-1640, 35° C.; for Minimal inhibitory concentration(MIC), C. albicans C1-2: RPMI-1640, 35° C., no growth observed
Procedure, shortened: as §1

Row | Structure (SMILES) | Minimal inhibitory concentration (MIC) [12] [µg/mL] | Minimal inhibitory concentration (MIC) (Candida albicans C1-2) [µg/mL] | Minimal inhibitory concentration(MIC), C. tropicalis A. 13803 [1] [µg/mL] | Minimal inhibitory concentration(MIC), A. niger A. 16404 [2] [µg/mL] | Minimal inhibitory concentration(MIC), T. mentagrophytes A. 9129 [3] [µg/mL] | Minimal inhibitory concentration(MIC), A furnigatus B. 19119 [4] [µg/mL] | Minimal inhibitory concentration(MIC), C. parapsitosis A. 7330 [5] [µg/mL] | Minimal inhibitory concentration(MIC), C. krusei K. 11655 (Candida krusei K. 11655) [µg/mL] | Minimal inhibitory concentration(MIC), Cry. neoformans IFM. 40092 [6] | Minimal inhibitory concentration(MIC), Cry. neoformans B. 42419 [7] [µg/mL] | Minimal inhibitory concentration(MIC), T. glabrata B. 16205 [8] [µg/mL] | Minimal inhibitory concentration(MIC), C. pseudotropicalis K. 11658 [9] [µg/mL] | Minimal inhibitory concentration(MIC), Cry. neoformans A. 34144 [10] [µg/mL] | Minimal inhibitory concentration(MIC), C. albicans IFO. 1385 [11] [µg/mL] | Minimal inhibitory concentration(MIC), C. albicans A. 10231 [12] [µg/mL] | Minimal inhibitory concentration(MIC), T. mentagrophytes B. 32663 [13] | Minimal inhibitory concentration(MIC), C. albicans C1-2 (Candida albicans C1-2) [µg/mL] | other results
1 | FC(OCC1COC(Cn2ccnc2)(c2ccc(F)cc2F)O1)=C(c1ccc2c(c1)OCO2)C(F)(F)F (mixture of isomers) [Ex. 62] | 12.5 | 12.5 | – | – | – | – | – | – | – | – | – | – | – | – | – | – | – | Minimal inhibitory concentration (MIC) ([1]; C. tropicalis A. 13803, RPMI-1640, 35° C.): 100 µg/mL; Minimal inhibitory concentration (MIC) ([2]; A. niger A. 16404, RPMI-1640, 35° C., 4 to 48 hours): >100 µg/mL; Minimal inhibitory concentration (MIC) ([3]; T. mentagrophytes A. 9129, RPMI-1640, 35° C., 4 to 48 hours): 12.5 µg/mL; Minimal inhibitory concentration (MIC) ([4]; A furnigatus B. 19119, RPMI-1640, 35° C., 4 to 48 hours): 25.0 µg/mL; Minimal inhibitory concentration (MIC) ([5]; C. parapsitosis A. 7330, RPMI-1640, 35° C.): >100 µg/mL; Minimal inhibitory concentration (MIC) (Candida krusei K. 11655; C. krusei K. 11655, RPMI-1640, 35° C.): 100 µg/mL; Minimal inhibitory concentration (MIC) ([6]; Cry. neoformans IFM. 40092, RPMI-1640, 35° C., 4 to 48 hours): 0.20 µg/mL; Minimal inhibitory concentration (MIC) ([7]; Cry. neoformans B. 42419, RPMI-1640, 35° C.): 0.78 µg/mL; Minimal inhibitory concentration (MIC) ([8]; T. glabrata B. 16205, RPMI-1640, 35° C.): 3.13 µg/mL; Minimal inhibitory concentration (MIC) ([9]; C. pseudotropicalis K. 11658, RPMI-1640, 35° C.): 50.0 µg/mL; Minimal inhibitory concentration (MIC) ([10]; Cry. neoformans A. 34144, RPMI-1640, 35° C., 4 to 48 hours): 0.78 µg/mL; Minimal inhibitory concentration (MIC) ([11]; C. albicans IFO. 1385, RPMI-1640, 35° C.): 0.78 µg/mL; Minimal inhibitory concentration (MIC) ([13]; T. mentagrophytes B. 32663, RPMI-1640, 35° C., 4 to 48 hours): 3.13 µg/mL
2 | FC(=C(c1cccc(F)c1)C(F)(F)F)N1CCN(c2ccc(OCC3COC(Cn4ccnc4)(c4ccc(F)cc4F)O3)cc2)CC1 (mixture of isomers) [Ex. 147] | – | – | >100 | 100 | 3.13 | 12.5 | 0.78 | 0.39 | ≦0.10 μg/ml | 0.78 | 50.0 | 0.39 | 0.78 | 0.78 | >100 | ≦0.10 μg/ml | >100 | –
3 | Cc1cccc(C(=C(F)OCC2COC(Cn3cncn3)(c3ccc(Cl)cc3Cl)O2)C(F)(F)F)c1 (mixture of isomers) [Ex. 80] | >100 | >100 | >100 | – | – | – | >100 | >100 | – | 1.56 | >100 | >100 | – | 12.5 | – | – | – | Minimal inhibitory concentration(MIC), A. niger A. 16404 ([2]; 4 to 48 hours): >100 µg/mL; Minimal inhibitory concentration(MIC), T. mentagrophytes A. 9129 ([3]; 4 to 48 hours): 100 µg/mL; Minimal inhibitory concentration(MIC), A furnigatus B. 19119 ([4]; 4 to 48 hours): >100 µg/mL; Minimal inhibitory concentration(MIC), Cry. neoformans IFM. 40092 ([6]; 4 to 48 hours): 0.78 µg/mL; Minimal inhibitory concentration(MIC), Cry. neoformans A. 34144 ([10]; 4 to 48 hours): 1.56 µg/mL; Minimal inhibitory concentration(MIC), T. mentagrophytes B. 32663 ([13]; 4 to 48 hours): 100 µg/mL
4 | FC(=C(c1ccc2c(c1)OCO2)C(F)(F)F)N1CCN(c2ccc(OCC3COC(Cn4ccnc4)(c4ccc(F)cc4F)O3)cc2)CC1 (mixture of isomers) [Ex. 145] | – | – | >100 | 100 | 6.25 | 100 | 3.13 | 1.56 | 0.78 µg/mL | 0.78 | 100 | 3.13 | 3.13 | 0.78 | >100 | 1.56 µg/mL | >100 | –

From patent US6376497B1, “Antifungal azole derivatives having a fluorinated vinyl group and process for preparing same” (Korea Research Institute of Chemical Technology, priority 1999, dated 2002)
